In assay [1] the target is T1, BTK recombinant human protein (Homo sapiens, UniProt Q06187).
T1 construct: purchased Thermo PV3363
Kind of assay: Inhibitory activity against BTK (HTRF KinEASE-TK kit). The class given is biochemical. The method, then:
Test example 1: Inhibitory activity of compounds of the present disclosure against BTK • I. Experimental materials and instruments • 1. BTK recombinant human protein (Thermo, PV3363) • 2. HTRF KinEASE-TK kit (Cisbio, 62TK0PEC) • 3. 1 M MgCl2 (Thermo, AM9530G) • 4. 1 M MnCl2 (Sigma, M1787-100ML) • 5. Adenosine 5'-triphosphate (ATP) (New England Biolabs, P0756L) • 6. DTT 2M (Sangon Biotech, B645939) • 7. Ultrapure water (Invitrogen, 10977-015) • 8. OptiPlate-384, white opaque 384-well microplate (PerkinElmer, 6007290) • 9. 96-well round-bottom plate (Corning, 3788) • 10. Biochemical incubator (Shanghai Boxun Medical & Biological Instruments Co., Ltd., BSP-100) • 11. 15-mL centrifuge tube (Corning) • 12. Benchtop high-speed centrifuge (Changsha Yingtai Instrument Co., Ltd., TD4N) • 13. Multifunctional microplate reader (PerkinElmer, EnVision) • 14. Bravo liquid handling platform (Agilent Technologies, SGC120TH34702) • II. Experimental procedure
The HTRF KinEASE-TK kit is designed to detect changes in BTK enzyme activity based on two technologies, i.e., fluorescence resonance energy transfer and time-resolved fluorescence. The kit is operated in two stages: 1) enzyme reaction stage: the enzyme reaction is initiated by adding ATP, where the enzyme phosphorylates the substrate, and the compounds are then added to competitively bind to BTK against ATP, thereby inhibiting substrate phosphorylation; and 2) detection stage: after the enzyme reaction is complete, a detection reagent is added to terminate the reaction. Different groups on the phosphorylated substrate bind to the energy donor and energy acceptor, respectively, bringing the two into close proximity. During the instrumental readout, the energy donor is excited by an external light source, which enables resonance energy transfer to the proximal energy acceptor. The acceptor, in turn, becomes excited and emits light at a specific wavelength. Thus, changes in enzyme activity can be detected by measuring the signal values, and the inhibition rate of the compounds against the target enzyme can be calculated, thereby evaluating the inhibitory effect of the compounds on BTK enzyme activity.
Preparation of enzyme reaction buffer: 5× Kinase Buffer was diluted 5-fold with ultrapure water, and then the stock solutions of MgCl2, MnCl2 and DTT were added. The final composition of the buffer was as follows: 1× Kinase Buffer, 10 mM MgCl2, 1 mM MnCl2, and 1 mM DTT.
Preparation of 5 × BTK working solution: The BTK (5.17 µM) stock solution was removed from -20°C storage. Given that the BTK concentration in the enzyme reaction system was 2 nM and the concentration of the 5× working solution was 10 nM, the BTK stock solution was diluted 517-fold with the enzyme reaction buffer according to the volume required for the experiment. The diluted solution was then added to the 384-well plate at 2 µL per well. The plate was placed in a plate spinner and centrifuged at 2000 rpm for 1 minute to bring the liquid to the bottom of the wells.
[…]. Given that the SEB concentration in the enzyme reaction system was 50 nM and the concentration of the 5× working solution was 250 nM, the SEB stock solution was diluted 10-fold with the enzyme reaction buffer according to the volume required for the experiment. The diluted solution was then added to the 384-well plate at 2 µL per well. The plate was placed in a plate spinner and centrifuged at 2000 rpm for 1 minute to bring the liquid to the bottom of the wells.
The test compounds dissolved in 100% DMSO at 20 mM were diluted with 100% DMSO to a concentration of 200 µM, which represents the 200× concentration of the highest compound concentration point in the reaction system. The compounds at this concentration were then subjected to 10-point 3-fold serial dilution with 100% DMSO. The positive control wells and negative control wells were set with 100% DMSO. […]
On the technique in general: TR-FRET usually uses a lanthanide donor and a delayed reading to cut background.

Assay [2] deals with B cell activation in human whole blood. Briefly: Inhibition of B cell activation in human whole blood (CD69 expression, flow cytometry). Particulars: anti-human IgD 30 µg/ml + IL-4 5 ng/ml, 18 hours, CD69-positive CD19-positive B cells, read-out: IC50 values of inhibitory activity against B cell activation in human whole blood. The format is cell-based. The text has this:
Test example 2: Inhibitory activity of compounds of the present disclosure against B cell activation in human whole blood • I. Experimental materials and instruments • 1. Human whole blood (internal recruitment) • 2. Goat F(ab')2 anti-human IgD-UNLB (SouthernBiotech, 2032-01) • 3. DPBS (1x) (Gibco, 14190-144) • 4. Recombinant human IL-4 (Peprotech, 200-04) • 5. Brilliant Violet 421™ anti-human CD19 antibody (Biolegend, 302234) • 6. APC anti-human CD69 antibody (Biolegend, 310910) • 7. APC mouse IgG1, κ isotype control antibody (Biolegend, 400120) • 8. eBioscience™ 10X RBC lysis buffer (multi-species) (Thermo, 004300-54) • 9. NEST 96-well deep-well plate (Wuxi NEST Biotechnology Co., Ltd., 503501) • 10. 96-well round-bottom plate (Corning, 3788) • 11. 96-well flat-bottom plate (Corning, 3599) • 12. Attune™ NxT acoustic focusing cytometer (ThermoFisher Scientific, 4.2.0) • 13. Cell incubator (Thermo, Forma steri-cycle i160) • II. Experimental procedure
B cells express the B cell receptor (BCR) complex on their surface. When B cells in human whole blood are induced to activate, they can trigger the downstream signalling pathways of the receptor and express the activation marker CD69. The expression of CD69 in activated B cells was detected by flow cytometry, and the IC50 of the compounds were calculated to evaluate the effects of the compounds on BCR activation.
The test compounds dissolved in 100% DMSO at 20 mM were diluted with 100% DMSO to a concentration of 1 mM, which represents the 200× concentration of the highest compound concentration point in the reaction system. The compounds at this concentration were then subjected to 8-point 4-fold serial dilution with 100% DMSO. The positive control wells were set with 100% DMSO, whereas the negative control wells were set with Remiburtinib at a final concentration of 5 µM. The serially diluted compounds and 100% DMSO were further diluted 10-fold in PBS to achieve the 20× concentration, followed by thorough mixing.
After thorough mixing, the whole blood sample was transferred to a loading reservoir and then dispensed into a 96-well flat-bottom plate at 80 µl per well. The compound dilution was dispensed at 5 µl per well. The 11th column of each row was designated as the negative control well, with 5 µl of 100 µM positive control drug added to each well. After thorough mixing for 5 min, the plate was incubated in a 37°C incubator for 30 min. Human IgD antibody was diluted 1.67-fold with PBS to a concentration of 300 µg/mL, and 10 µl of the diluted solution was added to each well of the culture plate (final concentration: 30 µg/ml). Human IL-4 (stock solution at 50 µg/ml) was diluted 500-fold with PBS to a concentration of 100 ng/mL, and 5 µl of the diluted solution was added to each well of the culture plate (final concentration: 5 ng/ml). After thorough mixing for 5 min, the plate was cultured in a 37°C incubator with 5% CO2 for 18 hours.
Flow cytometry detection: CD69-APC, CD19-BV421 and CD4-APC antibodies, and the isotype control antibodies for CD69-APC were removed from 4°C storage. Each antibody was added at 1 µl per well. After thorough mixing for 5 min, the plate was incubated for 30 min at 4°C (refrigerator) in the dark for staining. The 10X RBC lysis buffer was diluted in water to prepare 1X RBC lysis buffer. Aliquots of 1 ml of the lysis buffer were dispensed into each well of a 96-well deep-well plate in advance. The stained samples were transferred into the deep-well plate containing the lysis buffer for erythrocyte lysis. After completing the transfer of an entire plate, the plate was incubated in the dark for 15-20 min. Upon completion of lysis, the plate was centrifuged at 2000 rpm for 4 min. Each well was washed with 1 ml of PBS. Subsequently, the cells were resuspended in 200 µl of PBS, transferred to a 96-well plate, and washed twice more using the same procedure. The samples were resuspended in 200 µl of PBS per well and then subjected to flow cytometry detection. […]
A general note: In flow cytometry, cells or beads pass a laser one at a time.

Where [3] appears, read: 2 nM BTK, 10 µM ATP, 0.5 hours preincubation at 25°C; read-out: IC50 values of inhibitory activity against BTK.
The mark [4] stands for this setting: read-out: IC50 values of inhibitory activity against BTK; 2 nM BTK, 10 µM ATP, 0.5 hours preincubation at 25°C.

pIC50: −log10 of the molar value. Where two headings read alike, the source gives them in different places.

Broadly, the pIC50 is −log10 of the IC50, conventionally taken in molar units.

T1 sequence (Q06187 whole entry): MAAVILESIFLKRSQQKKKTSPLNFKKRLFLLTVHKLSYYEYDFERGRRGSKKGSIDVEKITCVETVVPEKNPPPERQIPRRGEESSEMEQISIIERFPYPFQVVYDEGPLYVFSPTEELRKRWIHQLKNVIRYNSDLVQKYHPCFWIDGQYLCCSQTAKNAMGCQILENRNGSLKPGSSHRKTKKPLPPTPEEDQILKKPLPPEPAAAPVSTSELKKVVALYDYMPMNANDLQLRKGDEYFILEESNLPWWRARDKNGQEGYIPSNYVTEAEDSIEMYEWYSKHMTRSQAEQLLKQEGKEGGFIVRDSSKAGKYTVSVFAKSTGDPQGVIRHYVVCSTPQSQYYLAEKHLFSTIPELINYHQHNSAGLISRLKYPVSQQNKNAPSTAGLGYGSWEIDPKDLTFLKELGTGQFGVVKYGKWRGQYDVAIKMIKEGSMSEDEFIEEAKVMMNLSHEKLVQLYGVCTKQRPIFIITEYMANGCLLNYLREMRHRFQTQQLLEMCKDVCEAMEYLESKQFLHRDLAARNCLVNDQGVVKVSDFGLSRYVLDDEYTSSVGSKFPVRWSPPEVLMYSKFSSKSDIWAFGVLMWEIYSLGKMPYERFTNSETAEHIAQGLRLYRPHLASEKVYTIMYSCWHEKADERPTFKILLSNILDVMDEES

`C=CC(=O)N(C)CCOc1c(N)ncnc1-c1cc(F)cc(NC(=O)c2cc3c(cc2F)C2(CC3)CC2)c1C` [Example 1, N-(3-(6-amino-5-(2-(N-methacrylamido)ethoxy)pyrimidin-4-yl)-5-fluoro-2-methylphenyl)-6'-fluoro-2',3'-dihydrospiro[cyclopropane-1,1'-indene]-5'-carboxamide]: the results for the pIC50 in assay [1] (setting [3]) and in assay [2] were 8.22 and 7.00 to 8.00, respectively.

On to `C=CC(=O)N(C)CCOc1c(N)ncnc1-c1cc(F)cc(NC(=O)c2ccc(C3(C)CC3)cc2F)c1C` [Example 2, N-(3-(6-amino-5-(2-(N-methacrylamido)ethoxy)pyrimidin-4-yl)-5-fluoro-2-methylphenyl)-2-fluoro-4-(1-methylcyclopropyl)benzamide], for which the pIC50 in assay [2] was 7.00 to 8.00.

On to `C=CC(=O)N(C)CCOc1c(N)ncnc1-c1cc(F)cc(NC(=O)c2ccc3c(c2F)OC(C)(C)C3)c1C` [Example 4, N-(3-(6-amino-5-(2-(N-methacrylamido)ethoxy)pyrimidin-4-yl)-5-fluoro-2-methylphenyl)-7-fluoro-2,2-dimethyl-2,3-dihydrobenzofuran-6-carboxamide], for which the pIC50 in assay [1] (setting [4]) was 8.29; in assay [2], 7.00 to 8.00.

Consider `C=CC(=O)N(C)CCOc1c(N)ncnc1-c1cc(F)cc(NC(=O)c2ccc3c(c2F)OCC32CC2)c1C` [Example 5, N-(3-(6-amino-5-(2-(N-methacrylamido)ethoxy)pyrimidin-4-yl)-5-fluoro-2-methylphenyl)-7-fluoro-2H-spiro[benzofuran-3,1'-cyclopropane]-6-carboxamide], for which the pIC50 in assay [1] (setting [3]) was 8.16; in assay [2], 7.00 to 8.00.

Turning to `C=CC(=O)N(C)CCOc1c(N)ncnc1-c1cc(F)cc(NC(=O)c2sc3c(c2F)CC(C)(C)C3)c1C` [Example 6, N-(3-(6-amino-5-(2-(N-methacrylamido)ethoxy)pyrimidin-4-yl)-5-fluoro-2-methylphenyl)-3-fluoro-5,5-dimethyl-5,6-dihydro-4H-cyclopenta[b]thiophene-2-carboxamide], in assay [1] (setting [4]), the pIC50 was 8.20.

For the molecule `C=CC(=O)N(C)CCOc1c(N)ncnc1-c1cc(F)cc(NC(=O)c2cc3c(cc2F)C2(CC3)CC2)c1CO` [Example 11, N-(3-(6-amino-5-(2-(N-methacrylamido)ethoxy)pyrimidin-4-yl)-5-fluoro-2-(hydroxymethyl)phenyl)-6'-fluoro-2',3'-dihydrospiro[cyclopropane-1,1'-indene]-5'-carboxamide], the figures for the negative-log IC50 (pIC50) in assay [1] (setting [4]) and in assay [2] were 8.38 and 7.00 to 8.00, respectively.

In the case of `C=CC(=O)N(C)CCOc1c(N)ncnc1-c1cc(F)cc(NC(=O)c2cc3c(cc2F)C(C)(C)CC3)c1C` [Example 12, N-(3-(6-amino-5-(2-(N-methacrylamido)ethoxy)pyrimidin-4-yl)-5-fluoro-2-methylphenyl)-6-fluoro-1,1-dimethyl-2,3-dihydro-1H-indene-5-carboxamide], the negative-log IC50 (pIC50) in assay [1] (setting [3]) is 8.40; in assay [2], 7.00 to 8.00.

Take `[2H]C([2H])([2H])N(CCOc1c(N)ncnc1-c1cc(F)cc(NC(=O)c2cc3c(cc2F)C2(CC2)CO3)c1C)C(=O)C=C` [Example 17, N-(3-(6-amino-5-(2-(N-(methyl-d3)acrylamido)ethoxy)pyrimidin-4-yl)-5-fluoro-2-methylphenyl)-5-fluoro-2H-spiro[benzofuran-3,1'-cyclopropane]-6-carboxamide]: the negative logarithm of the IC50 (pIC50) in assay [1] (setting [3]) is 8.24; in assay [2], 7.00 to 8.00.

As to `C=CC(=O)N(C)CCOc1c(N)ncnc1-c1cc(F)cc(NC(=O)c2ccc3c(c2F)OC2(CC2)C3)c1C` [Example 20], in assay [2], the pIC50 was 7.00 to 8.00.

For `C=CC(=O)N(C)CCOc1c(N)ncnc1-c1cc(F)cc(NC(=O)c2sc3c(c2F)C2(CC3)CC2)c1C` [Example 26-2, N-(3-(6-amino-5-(2-(N-methacrylamido)ethoxy)pyrimidin-4-yl)-5-fluoro-2-methylphenyl)-3-fluoro-5,6-dihydrospiro[cyclopenta[b]thiophene-4,1'-cyclopropane]-2-carboxamide], the pIC50 in assay [1] (setting [4]) was 8.21.

As for `C=CC(=O)N1C[C@H](OC)C[C@H]1COc1c(N)ncnc1-c1cc(F)cc(NC(=O)c2ccc3c(c2F)OCC3(C)C)c1C` [Example 33, N-(3-(5-(((2S,4R)-1-acryloyl-4-methoxypyrrolidin-2-yl)methoxy)-6-aminopyrimidin-4-yl)-5-fluoro-2-methylphenyl)-7-fluoro-3,3-dimethyl-2,3-dihydrobenzofuran-6-carboxamide], the negative-log IC50 (pIC50) in assay [1] (setting [3]) was 8.90.

For the origin of these results see patent publication EP4782437A1, “HETEROARYL COMPOUND, AND PREPARATION METHOD THEREFOR AND USE THEREOF IN MEDICINE” (Jiangsu Hengrui Pharmaceuticals Co., Ltd., priority 2023, dated 2025).
